We go through 13 compounds from patent publication US20250051319A1 (AUGUSTINE THERAPEUTICS, priority 2021, published 2025).

Sequence of catalytic domain 2 (CD2) of HDAC6 (Q9UBN7 482-800): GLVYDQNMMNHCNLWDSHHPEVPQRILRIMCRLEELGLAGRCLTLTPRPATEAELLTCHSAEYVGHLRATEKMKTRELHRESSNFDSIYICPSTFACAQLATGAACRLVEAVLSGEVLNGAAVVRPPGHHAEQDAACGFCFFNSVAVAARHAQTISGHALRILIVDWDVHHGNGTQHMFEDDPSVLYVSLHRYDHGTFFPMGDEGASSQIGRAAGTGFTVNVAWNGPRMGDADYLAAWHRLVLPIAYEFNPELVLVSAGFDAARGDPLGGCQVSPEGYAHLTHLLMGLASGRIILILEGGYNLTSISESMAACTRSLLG

The assay has as its target catalytic domain 2 (CD2) of HDAC6 (Homo sapiens (Human), UniProt Q9UBN7). The assay can be described thus: Cellular target engagement assay - NanoBRET. The assay is classed as cell-based. Conditions: NanoLuc-HDAC6(CD2) in HEK293T cells, 2 hours, read-out: IC50 (HDAC6(CD2) interaction). On the technique in general: BRET reads energy transfer from a luciferase to a nearby fluorophore.
`O=C(CO)NCc1ccc(C(=O)CSc2nccn3nccc23)s1` [Example 182, 2-hydroxy-N-((5-(2-(pyrazolo[1,5-a]pyrazin-4-ylthio)acetyl)thiophen-2-yl)methyl)acetamide]: the IC50 (as a rule, the midpoint of a concentration-inhibition curve) was in the range of 1000 to 10000 nM. On to `COc1ccc2nc(C)nc(SCC(=O)c3ccc(CNC(=O)C4CC4)s3)c2c1` [Example 51, N-((5-(2-((6-methoxy-2-methylquinazolin-4-yl)thio)acetyl)thiophen-2-yl)methyl)cyclopropanecarboxamide], for which the IC50 lay in the range of 100 to 500 nM. With `Cc1nc(SCC(=O)c2ccc(CNC(=O)CO)s2)c2ccc(F)cc2n1` [Compound 68, N-((5-(2-((7-fluoro-2-methylquinazolin-4-yl)thio)acetyl)thiophen-2-yl)methyl)-2-hydroxyacetamide] the figure was 100 to 500 nM; with `C[C@H](NC(=O)CO)c1ccc(C(=O)CSc2nc(C(F)(F)F)nc3c2cnn3C)s1` [Example 130, (S)-2-hydroxy-N-(1-(5-(2-((1-methyl-6-(trifluoromethyl)-1H-pyrazolo[3,4-d]pyrimidin-4-yl)thio)acetyl)thiophen-2-yl)ethyl)acetamide], 100 to 500 nM.

Take `O=C(CO)NCc1ccc(C(=O)CSc2nc3cc(C(F)(F)F)ccc3o2)s1` [Compound 105, 2-hydroxy-N-((5-(2-((5-(trifluoromethyl)benzo[d]oxazol-2-yl)thio)acetyl)thiophen-2-yl)methyl)acetamide]: the IC50 is 1000 to 10000 nM. As for `Cn1cc2c(SCC(=O)c3ccc(CNC(=O)C(C)(C)O)s3)nc(C(F)(F)F)nc2n1` [Compound 48, 2-hydroxy-2-methyl-N-((5-(2-((2-methyl-6-(trifluoromethyl)-2H-pyrazolo[3,4-d]pyrimidin-4-yl)thio)acetyl)thiophen-2-yl)methyl)propanamide], the figure is at most 100 nM. `O=C(CO)NCc1ccc(C(=O)CSc2nc3cc(Cl)cnc3[nH]2)s1` [Example 166, N-((5-(2-((6-chloro-3H-imidazo[4,5-b]pyridin-2-yl)thio)acetyl)thiophen-2-yl)methyl)-2-hydroxyacetamide]: the concentration for half-maximal inhibition (IC50) was 1000 to 10000 nM.

As for `CNCC(=O)NCc1ccc(C(=O)CSc2nc(C)nc3ccc(OC)cc23)s1` [Compound 183, N-((5-(2-((6-methoxy-2-methylquinazolin-4-yl)thio)acetyl)thiophen-2-yl)methyl)-2-(methylamino)acetamide], the IC50 was in the range of 100 to 500 nM. With `Cc1nc(SCC(=O)c2ccc(CNC(=O)CO)s2)c2cc(N3CCCCC3)ccc2n1` [Compound 82, 2-hydroxy-N-((5-(2-((2-methyl-6-(piperidin-1-yl)quinazolin-4-yl)thio)acetyl)thiophen-2-yl)methyl)acetamide] the figure was at most 100 nM; with `CCS(=O)(=O)NCc1ccc(C(=O)CSc2nc(C(F)(F)F)nc3ncccc23)s1` [Compound 127, N-((5-(2-((2-(trifluoromethyl)pyrido[2,3-d]pyrimidin-4-yl)thio)acetyl)thiophen-2-yl)methyl)ethanesulfonamide], at most 100 nM; with `CC(=O)NCCc1ccc(C(=O)CSc2nc(C3CC3)nc3ccccc23)s1` [Example 101, N-(2-(5-(2-((2-cyclopropylquinazolin-4-yl)thio)acetyl)thiophen-2-yl)ethyl)acetamide], 100 to 500 nM. As for `COc1ccc2nc(C)nc(SCC(=O)c3ccc([C@H](C)NC(=O)CO)s3)c2c1` [Example 128, (S)-2-hydroxy-N-(1-(5-(2-((6-methoxy-2-methylquinazolin-4-yl)thio)acetyl)thiophen-2-yl)ethyl)acetamide], the figure is 100 to 500 nM; as for `Cc1nc(SCC(=O)c2ccc(CNC(=O)CO)s2)c2cc(OC3CC3)ccc2n1` [Compound 77, N-((5-(2-((6-cyclopropoxy-2-methylquinazolin-4-yl)thio)acetyl)thiophen-2-yl)methyl)-2-hydroxyacetamide], at most 100 nM.
